Where two headings read alike, the source gives them in different places.
What was measured:
[1] = target: hemaglutinin (HA) (Influenza A virus (A/Sichuan/2/1987(H3N2)), UniProt H9XCU1); test: Hemaglutinin activity of type A influenza virus after treatment (agglutination of red blood cells); format: biochemical, A/Sichuan/2/87(H3N2); conditions: FIG. 1, concentration dependence
[2] = tested on: type A influenza virus; test: microbe, parasite or virus in culture; format: cell-based, A/Sichuan/2/87(H3N2)
[3] = tested on: type B influenza virus; test: microbe, parasite or virus in culture; format: cell-based, B/USSA/100/83E; conditions: unidentified influenza virus, read-out: percentage of inhibition against infection; for inhibition at 4 µg/mL: 5 min; for inhibition at 1 µg/mL: 1 h
[4] = target: neuraminidase (NA) (Influenza B virus (B/USSR/100/83), UniProt P16205); format: biochemical, type B influenza virus, B/USSA/100/83E; conditions: control 11.0
[5] = tested on: virus; test: Electron microscope observation of virus suspension with EGCg; conditions: EGCg added to suspension of the virus
Text: The […] (PTA) dyeing method was utilized.

Compound | hemaglutinin activity inhibiting power [1] | infection inhibiting power ([2]; FIG. 1, concentration dependence) | inhibition at 0.5 µg/mL ([2]; unidentified influenza virus, MDCK, 1 h, read-out: inhibition of infection) | number of plaques ([2]; virus treated 1 hour, 0.5 μg/ml) | inhibition at 4 µg/mL [3] | inhibition at 1 µg/mL [3] | NA activity ([4]; 50 μg/ml) | NA activity ([4]; 100 μg/ml) | behavior of the virus under electron microscope [5]
O=C(O[C@@H]1Cc2c(O)cc(O)cc2O[C@@H]1c1cc(O)c(O)c(O)c1)c1cc(O)c(O)c(O)c1 [EGCg, (-)epigallocatechin gallate] | depend on the concentration | depend on the concentration | 100% | zero | 100% | 100% | 8.00 | 5.10 | instantaneous formation of agglutinated lumps of the viruses
O=C(O[C@@H]1Cc2c(O)cc(O)cc2O[C@@H]1c1cc(O)c(=O)c2c(O)c(O)cc([C@H]3Oc4cc(O)cc(O)c4C[C@H]3OC(=O)c3cc(O)c(O)c(O)c3)c2c1)c1cc(O)c(O)c(O)c1 [TF3, theaflavin digallate] | – | – | – | – | 100% | 100% | – | – | –

Source: patent US5137922A (priority 1989, dated 1992)
